Reference: patent US12577138B2, “Using Daphnia for bioremediation” (priority 2019, dated 2026)

System: Daphnia magna genotype pools
Test: Viability of Daphnia magna genotype pools (1999, 1980, 1960) exposed to Carbaryl for four weeks
Type: in vivo
Conditions: Carbaryl 10 μg/L
Description: The ability to thrive of different Daphnia magna genotype pools resurrected from 1999, 1980, and 1960, was tested in presence of high concentrations of the carbamate insecticide Carbaryl (10 μg/L). Carbamate pesticides have been used at high levels since the 1970s, and so carbamate pesticides represent a common contaminant to current wastewater.
The three genotype pools were exposed to high concentrations of the carbamate insecticide Carbaryl in replicated large aquaria of 10 L. The aquaria contained borehole water to which a known concentration of Carbaryl was added. Each pool comprised different genotypes but the number of individuals in each pool was identical.
Prior to the exposure, the genotypes were individually cultured for two generations in the following conditions to control for maternal effects and synchronize reproduction: 20° C.; long photoperiod (16:8 light:dark regime); feed daily with 0.8 mg Carbon/L of C. vulgaris; medium was renewed every second day. After this phase, five 24-48 h old juveniles from the second brood of the third generation from 7 genotypes of each pool were randomly assigned to three replicated 10 L aquaria resulting in a total of 105 animals per aquarium (5 juveniles×7 genotypes×3 pools). The aquaria were then exposed to Carbaryl for four weeks (3 clonal generations). […]
The initial occurrence of each pool of genotypes was then compared to the random subset of animals sampled at the end of the experiment and genetically fingerprinted. This allowed to quantify changes in the occurrence of pool of genotypes from the three initially equally inoculated three pools. Changes in the occurrence of each pool of genotypes between the inoculum and the end of the experiment were quantified with a chi-squared test using the “stats” package in R v. […]

SMILES: CNC(=O)Oc1cccc2ccccc12 [Carbaryl]
- change in occurrence of genotypes versus initial inoculum (1960 pool): did not experience a significant change in the number of genotypes
- change in occurrence of genotypes versus initial inoculum (1980 pool): significantly decrease in the number of genotypes and almost disappeared
- change in occurrence of genotypes versus initial inoculum (1999 pool): did not experience a significant change in the number of genotypes
